From ChEMBL document CHEMBL1201862, “PubChem BioAssay data set” (2004)
Several values for one entry are separate records, joined by “and”; a condition that tells them apart may be missing. Equal values may be shown once.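 Five concentrations, 48 hours, 96-well plates. GI50: concentration for 50% inhibition of growth.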 Activity calls are given as the source filed them. No stated cut-off is given here; in the data, active = GI50 up to about 1.1 µM and inactive = higher.

What was measured:
Assay in all cases: growth of human tumour cells (NCI), 48 h
[1] = tested on: A498
[2] = tested on: CAKI-1
[3] = tested on: COLO 205
[4] = tested on: EKVX
[5] = tested on: HCC 2998
[6] = tested on: HCT-15
[7] = tested on: HL-60
[8] = tested on: HT-29
[9] = tested on: IGROV-1
[10] = tested on: KM12
[11] = tested on: MCF7
[12] = tested on: MDA-MB-231
[13] = tested on: MDA-MB-435
[14] = tested on: MDA-N
[15] = tested on: MOLT-4
[16] = tested on: Malme-3M
[17] = tested on: NCI-H226
[18] = tested on: NCI-H460
[19] = tested on: NCI-H522
[20] = tested on: NCI/ADR-RES
[21] = tested on: OVCAR-3
[22] = tested on: OVCAR-5
[23] = tested on: PC-3
[24] = tested on: SF-295
[25] = tested on: SK-MEL-28
[26] = tested on: SK-MEL-5
[27] = tested on: SNB-75
[28] = tested on: T47D
[29] = tested on: U-251
[30] = tested on: UACC-257
[31] = tested on: 786-0
[32] = tested on: K562
[33] = tested on: M14
[34] = tested on: RPMI-8226
[35] = tested on: RXF 393
[36] = tested on: SNB-19
[37] = tested on: TK-10
[38] = tested on: UACC-62
[39] = tested on: UO-31
[40] = tested on: A549
[41] = tested on: CCRF-CEM
[42] = tested on: DU-145
[43] = tested on: HOP-62
[44] = tested on: LOX IMVI
[45] = tested on: NCI-H23
[46] = tested on: OVCAR-8
[47] = tested on: SF-268
[48] = tested on: SK-OV-3
[49] = tested on: SN12C
[50] = tested on: SR
[51] = tested on: SW-620
[52] = tested on: Hs-578T
[53] = tested on: OVCAR-4
[54] = tested on: ACHN
[55] = tested on: HCT-116
[56] = tested on: HOP-92
[57] = tested on: SF-539
[58] = tested on: SK-MEL-2

CC(=O)OCC1OC(n2c(-c3ccccc3)c(C)c(C)c(C#N)c2=S)C(OC(C)=O)C(OC(C)=O)C1OC(C)=O (configuration not stated)
GI50 [1]: > 50 µM (inactive) and 43.8 µM (inactive) | GI50 [2]: > 50 µM (inactive) | GI50 [3]: > 100 µM (inactive) | GI50 [4]: 13.5 µM (inactive) and 14.8 µM (inactive) | GI50 [5]: > 50 µM (inactive) and 86.3 µM (inactive) | GI50 [6]: 64.4 µM | GI50 [7]: > 100 µM (inactive) | GI50 [8]: > 50 µM (inactive) | GI50 [9]: > 100 µM (inactive) | GI50 [10]: > 50 µM (inactive) | GI50 [11]: > 50 µM (inactive) | GI50 [12]: 12.9 µM (inactive) and 12.8 µM (inactive) | GI50 [13]: 57.5 µM (inactive) | GI50 [14]: 28.8 µM (inactive) and 18.1 µM (inactive) | GI50 [15]: > 50 µM (inactive) | GI50 [16]: > 50 µM (inactive) and 38.1 µM (inactive) | GI50 [17]: > 50 µM (inactive) | GI50 [18]: > 50 µM (inactive) and 43.4 µM (inactive) | GI50 [19]: > 50 µM (inactive) and 65.8 µM (inactive) | GI50 [20]: 34.2 µM (inactive) and 47.4 µM (inactive) | GI50 [21]: 37.4 µM (inactive) and 27.2 µM (inactive) | GI50 [22]: 37.3 µM (inactive) | GI50 [23]: 26.4 µM (inactive) | GI50 [24]: 21 µM (inactive) and 23.1 µM (inactive) | GI50 [25]: 72.4 µM (inactive) | GI50 [26]: > 100 µM (inactive) | GI50 [27]: > 100 µM (inactive) | GI50 [28]: > 50 µM (inactive) and 34 µM (inactive) | GI50 [29]: 20.3 µM (inactive) | GI50 [30]: 54.5 µM (inactive)

Cc1ccc(-c2cc(-c3ccco3)c(C#N)c(=S)n2C2OC(CO)C(O)C(O)C2O)cc1 (configuration not stated)
GI50 [31]: 36.6 µM (inactive) and 56.8 µM (inactive) | GI50 [1]: 41 µM (inactive) and 28.2 µM (inactive) | GI50 [3]: 27.2 µM (inactive) and 35.1 µM (inactive) | GI50 [4]: > 100 µM (inactive) and 95.9 µM (inactive) | GI50 [5]: > 100 µM (inactive) | GI50 [6]: 94.6 µM and 49.2 µM | GI50 [8]: 34.9 µM (inactive) and 34 µM (inactive) | GI50 [32]: 39 µM (inactive) | GI50 [10]: 17.2 µM (inactive) and 30.1 µM (inactive) | GI50 [33]: 17.7 µM (inactive) and 30.3 µM (inactive) | GI50 [11]: 27.9 µM (inactive) and 49 µM (inactive) | GI50 [13]: 43.2 µM (inactive) and 38.9 µM (inactive) | GI50 [14]: 30.4 µM (inactive) and 34.4 µM (inactive) | GI50 [18]: 28 µM (inactive) and 36.6 µM (inactive) | GI50 [21]: 21.4 µM (inactive) and 35.6 µM (inactive) | GI50 [22]: 45.7 µM (inactive) and 39.5 µM (inactive) | GI50 [34]: 4.46 µM (inactive) and 6.04 µM (inactive) | GI50 [35]: 18.6 µM (inactive) and 18.9 µM (inactive) | GI50 [25]: 52.2 µM (inactive) and 41 µM (inactive) | GI50 [36]: 36.1 µM (inactive) and 68.9 µM (inactive) | GI50 [27]: 66.4 µM (inactive) and 60.5 µM (inactive) | GI50 [37]: 67.8 µM (inactive) and 54.5 µM (inactive) | GI50 [30]: 53.8 µM (inactive) and 45.3 µM (inactive) | GI50 [38]: 2.23 µM (inactive) and 2.48 µM (inactive) | GI50 [39]: 18.5 µM (inactive) and 31.7 µM (inactive)

CCOC(=O)c1sc2nc(-c3ccccc3)nn2c1CBr
GI50 [31]: 1.6 µM (inactive) | GI50 [40]: 5.11 µM (inactive) | GI50 [2]: 1.5 µM (inactive) | GI50 [41]: 0.244 µM (active) | GI50 [3]: 1.9 µM (inactive) | GI50 [42]: > 10 µM (inactive) | GI50 [4]: > 10 µM (inactive) | GI50 [5]: 5.33 µM (inactive) | GI50 [7]: 0.348 µM (active) | GI50 [43]: > 10 µM (inactive) | GI50 [8]: 1.89 µM (inactive) | GI50 [9]: 3.17 µM (inactive) | GI50 [32]: 0.589 µM (active) | GI50 [10]: 2.11 µM (inactive) | GI50 [44]: 1.56 µM (inactive) | GI50 [33]: 1.51 µM (inactive) | GI50 [11]: 1.91 µM (inactive) | GI50 [12]: 1.9 µM (inactive) | GI50 [15]: 0.296 µM (active) | GI50 [16]: 2.07 µM (inactive) | GI50 [45]: 1.94 µM (inactive) | GI50 [46]: 2.07 µM (inactive) | GI50 [23]: 2.06 µM (inactive) | GI50 [34]: 1.74 µM (inactive) | GI50 [35]: 2.59 µM (inactive) | GI50 [47]: 2.04 µM (inactive) | GI50 [24]: 9.29 µM (inactive) | GI50 [25]: 1.95 µM (inactive) | GI50 [26]: 1.77 µM (inactive) | GI50 [48]: 3.12 µM (inactive) | GI50 [49]: 1.74 µM (inactive) | GI50 [27]: 2.24 µM (inactive) | GI50 [50]: 0.311 µM (active) | GI50 [51]: 1.73 µM (inactive) | GI50 [28]: 2.42 µM (inactive) | GI50 [37]: 2.34 µM (inactive) | GI50 [30]: 2.16 µM (inactive)

Cc1nc2ccc(Br)cc2c(=O)n1-c1ccc(NC2OCC(O)C(O)C2O)cc1 (configuration not stated)
GI50 [1]: > 100 µM (inactive) | GI50 [40]: > 100 µM (inactive) | GI50 [42]: > 100 µM (inactive) | GI50 [4]: > 100 µM (inactive) | GI50 [43]: > 100 µM (inactive) | GI50 [52]: 58.9 µM (inactive) | GI50 [9]: 62.4 µM (inactive) | GI50 [17]: > 100 µM (inactive) | GI50 [53]: > 100 µM (inactive) and 87.5 µM (inactive) | GI50 [22]: > 100 µM (inactive) | GI50 [47]: > 100 µM (inactive) and 55.6 µM (inactive) | GI50 [24]: > 100 µM (inactive) | GI50 [26]: 58.3 µM (inactive) | GI50 [36]: > 100 µM (inactive) | GI50 [37]: > 100 µM (inactive) and 59.3 µM (inactive)

NC(=O)NC(=O)c1cccc(C(=O)NC(N)=O)n1
GI50 [31]: > 100 µM (inactive) | GI50 [1]: > 100 µM (inactive) | GI50 [40]: > 100 µM (inactive) | GI50 [54]: > 100 µM (inactive) | GI50 [2]: > 100 µM (inactive) | GI50 [41]: > 100 µM (inactive) | GI50 [3]: > 10 µM (inactive) | GI50 [42]: > 100 µM (inactive) | GI50 [4]: > 100 µM (inactive) | GI50 [5]: > 100 µM (inactive) | GI50 [55]: > 100 µM (inactive) | GI50 [6]: > 100 µM | GI50 [7]: > 100 µM (inactive) | GI50 [43]: > 100 µM (inactive) | GI50 [56]: 24 µM (inactive) | GI50 [8]: > 100 µM (inactive) | GI50 [32]: > 100 µM (inactive) | GI50 [10]: > 100 µM (inactive) | GI50 [44]: > 100 µM (inactive) | GI50 [33]: > 100 µM (inactive) | GI50 [11]: > 100 µM (inactive) | GI50 [12]: > 100 µM (inactive) | GI50 [13]: > 100 µM (inactive) | GI50 [14]: > 100 µM (inactive) | GI50 [15]: > 100 µM (inactive) | GI50 [16]: > 100 µM (inactive) | GI50 [17]: > 100 µM (inactive) | GI50 [45]: > 100 µM (inactive) | GI50 [18]: > 100 µM (inactive) | GI50 [19]: > 100 µM (inactive) | GI50 [20]: > 100 µM (inactive) | GI50 [21]: > 100 µM (inactive) | GI50 [53]: > 100 µM (inactive) | GI50 [22]: > 100 µM (inactive) | GI50 [46]: > 100 µM (inactive) | GI50 [23]: > 100 µM (inactive) | GI50 [34]: > 100 µM (inactive) | GI50 [35]: > 100 µM (inactive) | GI50 [47]: > 100 µM (inactive) | GI50 [24]: > 100 µM (inactive) | GI50 [57]: > 100 µM (inactive) | GI50 [25]: > 100 µM (inactive) | GI50 [58]: > 100 µM (inactive) | GI50 [26]: > 100 µM (inactive) | GI50 [48]: > 100 µM (inactive) | GI50 [49]: > 100 µM (inactive) | GI50 [36]: > 100 µM (inactive) | GI50 [50]: > 100 µM (inactive) | GI50 [51]: > 100 µM (inactive) | GI50 [28]: > 100 µM (inactive) | GI50 [37]: > 100 µM (inactive) | GI50 [29]: > 100 µM (inactive) | GI50 [30]: > 100 µM (inactive) | GI50 [38]: > 100 µM (inactive) | GI50 [39]: > 100 µM (inactive)
